How the values were obtained:
Experiment in all cases: ScanEDGE kinase panel (DiscoverX)
Assay type in all cases: binding
Conditions in all cases: read-out: % of control activity at 71 nM
[1] = biological target: T1, AMPK-alpha1 (Homo sapiens, UniProt Q13131)
T1 construct: T7 phage fusion (most kinases) or DNA tag for qPCR (HEK-293-made kinases); purchased DiscoverX (Fremont, CA); host or cells: E. coli BL21-derived host (T7 phage) or HEK-293
Procedure: (§1) ScanEDGE kinase assays paneling specificity across a panel of 96 representative kinases were performed by DiscoverX (Fremont, CA). For most assays, kinase-tagged T7 phage strains were grown in parallel in 24-well blocks in an E. coli host derived from the BL21 strain. Bacteria were grown to log phase and infected with T7 phage from frozen stock (MOI=0.4) and incubated with shaking at 32° C. until lysis (90-150 minutes). The lysates were centrifuged (6000×g) and filtered (0.2 μm) to remove cell debris. The remaining kinases were produced in HEK-293 cells and subsequently tagged with DNA for qPCR detection. […] The liganded beads were blocked with excess biotin and washing with blocking buffer (SeaBlock (Pierce), 1% BSA, 0.05% Tween 20, 1 mM DTT) to remove unbound ligand and to reduce non-specific phage binding. […] Test compounds were prepared as 40× stocks in 100% DMSO and directly diluted into the assay. All reactions were performed in polypropylene 384 well plates in a final volume of 40 μl. […] The kinase concentration in the eluates was measured by qPCR.

[2] = biological target: T2, HIPK2 (Homo sapiens, UniProt Q9H2X6)
T2 construct: T7 phage fusion (most kinases) or DNA tag for qPCR (HEK-293-made kinases); purchased DiscoverX; host or cells: E. coli BL21-derived host (T7 phage) or HEK-293
Procedure: as §1

[3] = biological target: T3, CHEK1 (Homo sapiens, UniProt O14757)
T3 construct: T7 phage fusion (most kinases) or DNA tag for qPCR (HEK-293-made kinases); purchased DiscoverX (Fremont, CA); host or cells: E. coli BL21-derived host (T7 phage) or HEK-293
Procedure: as §1

[4] = biological target: T4, JNK1 (Homo sapiens, UniProt P45983)
T4 construct: T7 phage fusion (most kinases) or DNA tag for qPCR (HEK-293-made kinases); purchased DiscoverX; host or cells: E. coli BL21-derived host (T7 phage) or HEK-293
Procedure: as §1

[5] = biological target: T5, SRPK3 (Homo sapiens, UniProt Q9UPE1)
T5 construct: T7 phage fusion (most kinases) or DNA tag after HEK-293 expression; purchased DiscoverX (Fremont, CA), ScanEDGE; host or cells: T7 phage in E. coli BL21-derived host, or HEK-293
Procedure: as §1

[6] = biological target: T6, PCTK1 (Homo sapiens, UniProt Q00536)
T6 construct: T7 phage fusion (most kinases) or DNA tag for qPCR (kinases made in HEK-293); purchased DiscoverX; host or cells: E. coli BL21-derived host (T7 phage) or HEK-293
Procedure: as §1

[7] = biological target: T7, DCAMKL1 (Homo sapiens, UniProt O15075)
T7 construct: T7 phage fusion (most kinases) or DNA tag for qPCR (HEK-293-made kinases); purchased DiscoverX (Fremont, CA); host or cells: E. coli BL21-derived host (T7 phage) or HEK-293
Procedure: as §1

[8] = biological target: T8, MELK (Homo sapiens, UniProt Q14680)
T8 construct: T7 phage fusion (most kinases) or DNA tag for qPCR (kinases made in HEK-293); purchased DiscoverX; host or cells: E. coli BL21-derived host (T7 phage) or HEK-293
Procedure: as §1

[9] = biological target: T9, ZAP70 (Homo sapiens, UniProt P43403)
T9 construct: T7 phage fusion (most kinases) or DNA tag after HEK-293 expression; purchased DiscoverX (Fremont, CA), ScanEDGE; host or cells: T7 phage in E. coli BL21-derived host, or HEK-293
Procedure: as §1

[10] = biological target: T10, CSF1R (Homo sapiens, UniProt P07333)
T10 construct: T7 phage fusion (most kinases) or DNA tag for qPCR (HEK-293-made kinases); purchased DiscoverX (Fremont, CA); host or cells: E. coli BL21-derived host (T7 phage) or HEK-293
Procedure: as §1

[11] = biological target: T11, SRC (Homo sapiens, UniProt P12931)
T11 construct: T7 phage fusion (most kinases) or DNA tag after HEK-293 expression; purchased DiscoverX (Fremont, CA), ScanEDGE; host or cells: T7 phage in E. coli BL21-derived host, or HEK-293
Procedure: as §1

[12] = biological target: T12, RAF1 (Homo sapiens, UniProt P04049)
T12 construct: T7 phage fusion (most kinases) or DNA tag after HEK-293 expression; purchased DiscoverX (Fremont, CA), ScanEDGE; host or cells: T7 phage in E. coli BL21-derived host, or HEK-293
Procedure: as §1

[13] = biological target: T13, PLK3 (Homo sapiens, UniProt Q9H4B4)
T13 construct: T7 phage fusion (most kinases) or DNA tag for qPCR (kinases made in HEK-293); purchased DiscoverX; host or cells: E. coli BL21-derived host (T7 phage) or HEK-293
Procedure: as §1

[14] = biological target: T14, p38-beta (Homo sapiens, UniProt Q15759)
T14 construct: T7 phage fusion (most kinases) or DNA tag for qPCR (kinases made in HEK-293); purchased DiscoverX; host or cells: E. coli BL21-derived host (T7 phage) or HEK-293
Procedure: as §1

[15] = biological target: T15, CDK3 (Homo sapiens, UniProt Q00526)
T15 construct: T7 phage fusion (most kinases) or DNA tag for qPCR (HEK-293-made kinases); purchased DiscoverX (Fremont, CA); host or cells: E. coli BL21-derived host (T7 phage) or HEK-293
Procedure: as §1

[16] = biological target: T16, RIOK2 (Homo sapiens, UniProt Q9BVS4)
T16 construct: T7 phage fusion (most kinases) or DNA tag after HEK-293 expression; purchased DiscoverX (Fremont, CA), ScanEDGE; host or cells: T7 phage in E. coli BL21-derived host, or HEK-293
Procedure: as §1

[17] = biological target: T17, TRKA (Homo sapiens, UniProt P04629)
T17 construct: T7 phage fusion (most kinases) or DNA tag after HEK-293 expression; purchased DiscoverX (Fremont, CA), ScanEDGE; host or cells: T7 phage in E. coli BL21-derived host, or HEK-293
Procedure: as §1

[18] = biological target: T18, AKT1 (Homo sapiens, UniProt P31749)
T18 construct: T7 phage fusion (most kinases) or DNA tag for qPCR (HEK-293-made kinases); purchased DiscoverX (Fremont, CA); host or cells: E. coli BL21-derived host (T7 phage) or HEK-293
Procedure: as §1

[19] = biological target: T19, LKB1 (Homo sapiens, UniProt Q15831)
T19 construct: T7 phage fusion (most kinases) or DNA tag for qPCR (HEK-293-made kinases); purchased DiscoverX; host or cells: E. coli BL21-derived host (T7 phage) or HEK-293
Procedure: as §1

[20] = biological target: T20, BMPR2 (Homo sapiens, UniProt Q13873)
T20 construct: T7 phage fusion (most kinases) or DNA tag for qPCR (HEK-293-made kinases); purchased DiscoverX (Fremont, CA); host or cells: E. coli BL21-derived host (T7 phage) or HEK-293
Procedure: as §1

[21] = biological target: T21, ERBB2 (Homo sapiens, UniProt P04626)
T21 construct: T7 phage fusion (most kinases) or DNA tag for qPCR (HEK-293-made kinases); purchased DiscoverX; host or cells: E. coli BL21-derived host (T7 phage) or HEK-293
Procedure: as §1

[22] = biological target: T22, BRSK1 (Homo sapiens, UniProt Q8TDC3)
T22 construct: T7 phage fusion (most kinases) or DNA tag for qPCR (HEK-293-made kinases); purchased DiscoverX (Fremont, CA); host or cells: E. coli BL21-derived host (T7 phage) or HEK-293
Procedure: as §1

[23] = biological target: T23, PAK2 (Homo sapiens, UniProt Q13177)
T23 construct: T7 phage fusion (most kinases) or DNA tag for qPCR (kinases made in HEK-293); purchased DiscoverX; host or cells: E. coli BL21-derived host (T7 phage) or HEK-293
Procedure: as §1

[24] = biological target: T24, VEGFR2 (Homo sapiens, UniProt P35968)
T24 construct: T7 phage fusion (most kinases) or DNA tag after HEK-293 expression; purchased DiscoverX (Fremont, CA), ScanEDGE; host or cells: T7 phage in E. coli BL21-derived host, or HEK-293
Procedure: as §1

[25] = biological target: T25, ERK1 (Homo sapiens, UniProt P27361)
T25 construct: T7 phage fusion (most kinases) or DNA tag for qPCR (HEK-293-made kinases); purchased DiscoverX; host or cells: E. coli BL21-derived host (T7 phage) or HEK-293
Procedure: as §1

[26] = biological target: T26, TSSK1B (Homo sapiens, UniProt Q9BXA7)
T26 construct: T7 phage fusion (most kinases) or DNA tag after HEK-293 expression; purchased DiscoverX (Fremont, CA), ScanEDGE; host or cells: T7 phage in E. coli BL21-derived host, or HEK-293
Procedure: as §1

[27] = biological target: T27, RSK2 (Homo sapiens, UniProt P51812)
T27 construct: T7 phage fusion (most kinases) or DNA tag after HEK-293 expression; purchased DiscoverX (Fremont, CA), ScanEDGE; host or cells: T7 phage in E. coli BL21-derived host, or HEK-293
Procedure: as §1

[28] = biological target: T28, CDK7 (Homo sapiens, UniProt P50613)
T28 construct: T7 phage fusion (most kinases) or DNA tag for qPCR (HEK-293-made kinases); purchased DiscoverX (Fremont, CA); host or cells: E. coli BL21-derived host (T7 phage) or HEK-293
Procedure: as §1

[29] = biological target: T29, PIK3CG (Homo sapiens, UniProt P48736)
T29 construct: T7 phage fusion (most kinases) or DNA tag for qPCR (kinases made in HEK-293); purchased DiscoverX; host or cells: E. coli BL21-derived host (T7 phage) or HEK-293
Procedure: as §1

[30] = biological target: T30, CSNK1D (Homo sapiens, UniProt P48730)
T30 construct: T7 phage fusion (most kinases) or DNA tag for qPCR (HEK-293-made kinases); purchased DiscoverX (Fremont, CA); host or cells: E. coli BL21-derived host (T7 phage) or HEK-293
Procedure: as §1

[31] = biological target: T31, LCK (Homo sapiens, UniProt P06239)
T31 construct: T7 phage fusion (most kinases) or DNA tag for qPCR (HEK-293-made kinases); purchased DiscoverX; host or cells: E. coli BL21-derived host (T7 phage) or HEK-293
Procedure: as §1

[32] = biological target: T32, INSR (Homo sapiens, UniProt P06213)
T32 construct: T7 phage fusion (most kinases) or DNA tag for qPCR (HEK-293-made kinases); purchased DiscoverX; host or cells: E. coli BL21-derived host (T7 phage) or HEK-293
Procedure: as §1

[33] = biological target: T33, PDGFRB (Homo sapiens, UniProt P09619)
T33 construct: T7 phage fusion (most kinases) or DNA tag for qPCR (kinases made in HEK-293); purchased DiscoverX; host or cells: E. coli BL21-derived host (T7 phage) or HEK-293
Procedure: as §1

T30 sequence (P48730 whole entry, the tested form may be a part): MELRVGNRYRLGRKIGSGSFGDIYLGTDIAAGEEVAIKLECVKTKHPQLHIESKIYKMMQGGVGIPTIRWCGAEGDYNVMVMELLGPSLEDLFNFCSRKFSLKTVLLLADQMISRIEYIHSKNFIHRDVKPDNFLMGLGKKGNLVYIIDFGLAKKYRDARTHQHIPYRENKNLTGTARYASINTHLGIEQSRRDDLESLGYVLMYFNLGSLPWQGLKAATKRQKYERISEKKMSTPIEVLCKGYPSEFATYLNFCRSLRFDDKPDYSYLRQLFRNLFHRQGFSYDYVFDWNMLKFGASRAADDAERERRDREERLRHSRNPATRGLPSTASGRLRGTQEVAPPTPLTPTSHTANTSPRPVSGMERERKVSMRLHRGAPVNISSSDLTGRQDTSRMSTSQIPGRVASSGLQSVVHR
T32 sequence (P06213 28-1382): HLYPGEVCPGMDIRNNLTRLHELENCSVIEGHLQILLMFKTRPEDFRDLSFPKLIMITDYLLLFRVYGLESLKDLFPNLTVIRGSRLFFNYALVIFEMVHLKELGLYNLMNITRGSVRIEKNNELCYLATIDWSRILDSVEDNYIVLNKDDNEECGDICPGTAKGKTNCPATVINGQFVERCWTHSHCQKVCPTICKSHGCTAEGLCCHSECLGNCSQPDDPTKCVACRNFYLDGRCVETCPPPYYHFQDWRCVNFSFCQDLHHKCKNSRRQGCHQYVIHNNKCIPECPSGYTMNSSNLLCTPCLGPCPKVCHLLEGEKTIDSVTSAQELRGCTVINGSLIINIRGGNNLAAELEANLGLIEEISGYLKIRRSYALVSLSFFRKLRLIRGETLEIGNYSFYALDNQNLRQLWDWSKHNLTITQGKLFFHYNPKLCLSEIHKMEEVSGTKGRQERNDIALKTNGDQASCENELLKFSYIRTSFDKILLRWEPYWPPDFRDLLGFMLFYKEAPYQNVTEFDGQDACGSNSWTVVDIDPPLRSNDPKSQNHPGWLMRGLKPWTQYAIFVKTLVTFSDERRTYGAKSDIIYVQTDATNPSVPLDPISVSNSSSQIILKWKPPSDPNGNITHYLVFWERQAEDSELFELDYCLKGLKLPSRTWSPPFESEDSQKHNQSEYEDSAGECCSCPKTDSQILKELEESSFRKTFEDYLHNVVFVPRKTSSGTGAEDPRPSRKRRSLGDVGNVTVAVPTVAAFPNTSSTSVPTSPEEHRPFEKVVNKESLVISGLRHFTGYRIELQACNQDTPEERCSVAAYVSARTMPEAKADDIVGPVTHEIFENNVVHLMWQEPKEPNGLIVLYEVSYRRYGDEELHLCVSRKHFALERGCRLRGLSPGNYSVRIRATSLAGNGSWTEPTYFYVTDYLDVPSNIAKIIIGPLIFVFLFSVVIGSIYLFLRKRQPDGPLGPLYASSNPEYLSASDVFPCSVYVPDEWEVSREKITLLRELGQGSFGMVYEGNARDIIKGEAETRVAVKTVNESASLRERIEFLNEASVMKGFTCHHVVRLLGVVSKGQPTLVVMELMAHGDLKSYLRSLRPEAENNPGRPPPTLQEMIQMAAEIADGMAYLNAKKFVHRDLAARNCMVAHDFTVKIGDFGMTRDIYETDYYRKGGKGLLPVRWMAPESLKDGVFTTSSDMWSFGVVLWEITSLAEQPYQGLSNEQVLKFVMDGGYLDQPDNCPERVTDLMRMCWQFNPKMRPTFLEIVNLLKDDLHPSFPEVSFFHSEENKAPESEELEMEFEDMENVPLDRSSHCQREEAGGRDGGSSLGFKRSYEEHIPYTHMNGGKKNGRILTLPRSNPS
T27 sequence (P51812 39-397 limits assumed): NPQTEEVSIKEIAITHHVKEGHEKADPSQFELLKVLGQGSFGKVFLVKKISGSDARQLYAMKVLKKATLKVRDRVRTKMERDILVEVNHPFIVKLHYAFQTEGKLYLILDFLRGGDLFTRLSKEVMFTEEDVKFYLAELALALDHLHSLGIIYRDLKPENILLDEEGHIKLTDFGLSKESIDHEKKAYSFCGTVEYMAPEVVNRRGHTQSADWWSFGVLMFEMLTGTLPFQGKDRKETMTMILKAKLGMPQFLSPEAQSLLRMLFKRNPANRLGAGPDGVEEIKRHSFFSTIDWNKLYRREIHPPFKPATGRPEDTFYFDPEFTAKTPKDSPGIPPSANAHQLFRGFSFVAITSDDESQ
T12 sequence (P04049 whole entry, the tested form may be a part): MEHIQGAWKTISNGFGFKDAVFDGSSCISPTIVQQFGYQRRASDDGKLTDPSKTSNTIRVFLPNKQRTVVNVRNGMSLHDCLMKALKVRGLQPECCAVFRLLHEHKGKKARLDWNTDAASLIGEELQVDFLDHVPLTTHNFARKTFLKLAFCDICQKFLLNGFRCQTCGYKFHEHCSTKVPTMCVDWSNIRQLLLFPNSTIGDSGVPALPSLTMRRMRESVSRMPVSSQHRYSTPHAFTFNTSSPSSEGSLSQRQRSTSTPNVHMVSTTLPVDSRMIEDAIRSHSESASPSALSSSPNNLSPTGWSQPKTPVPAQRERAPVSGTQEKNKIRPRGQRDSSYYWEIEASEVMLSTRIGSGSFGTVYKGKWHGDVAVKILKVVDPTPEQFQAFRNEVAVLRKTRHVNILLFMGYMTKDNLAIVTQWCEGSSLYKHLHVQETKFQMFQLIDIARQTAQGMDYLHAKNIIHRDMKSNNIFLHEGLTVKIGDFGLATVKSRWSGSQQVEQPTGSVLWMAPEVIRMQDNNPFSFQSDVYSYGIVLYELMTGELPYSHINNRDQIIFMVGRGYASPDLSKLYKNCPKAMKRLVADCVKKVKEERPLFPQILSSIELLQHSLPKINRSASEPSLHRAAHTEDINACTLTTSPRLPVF
T17 sequence (P04629 33-796): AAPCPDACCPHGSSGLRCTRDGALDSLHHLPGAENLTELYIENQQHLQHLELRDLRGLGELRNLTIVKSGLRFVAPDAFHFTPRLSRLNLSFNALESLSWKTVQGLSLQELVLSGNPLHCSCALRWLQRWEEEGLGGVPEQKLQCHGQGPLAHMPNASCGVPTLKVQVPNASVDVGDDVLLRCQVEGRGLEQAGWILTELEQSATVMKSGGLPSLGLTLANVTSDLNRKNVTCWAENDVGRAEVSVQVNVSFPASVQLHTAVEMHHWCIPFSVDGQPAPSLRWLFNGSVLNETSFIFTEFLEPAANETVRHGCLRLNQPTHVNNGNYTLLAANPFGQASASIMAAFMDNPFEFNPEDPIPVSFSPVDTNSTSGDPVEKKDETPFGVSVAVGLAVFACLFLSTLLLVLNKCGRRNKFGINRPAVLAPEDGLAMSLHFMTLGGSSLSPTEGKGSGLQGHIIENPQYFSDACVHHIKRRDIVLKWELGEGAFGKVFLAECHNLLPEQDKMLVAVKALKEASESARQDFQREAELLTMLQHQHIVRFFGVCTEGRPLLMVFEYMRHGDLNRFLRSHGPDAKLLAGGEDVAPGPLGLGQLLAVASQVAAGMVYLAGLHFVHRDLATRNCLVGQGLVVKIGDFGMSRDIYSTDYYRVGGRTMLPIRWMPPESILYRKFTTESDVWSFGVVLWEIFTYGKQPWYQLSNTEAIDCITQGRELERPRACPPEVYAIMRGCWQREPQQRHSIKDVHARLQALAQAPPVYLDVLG
T19 sequence (Q15831 whole entry, the tested form may be a part): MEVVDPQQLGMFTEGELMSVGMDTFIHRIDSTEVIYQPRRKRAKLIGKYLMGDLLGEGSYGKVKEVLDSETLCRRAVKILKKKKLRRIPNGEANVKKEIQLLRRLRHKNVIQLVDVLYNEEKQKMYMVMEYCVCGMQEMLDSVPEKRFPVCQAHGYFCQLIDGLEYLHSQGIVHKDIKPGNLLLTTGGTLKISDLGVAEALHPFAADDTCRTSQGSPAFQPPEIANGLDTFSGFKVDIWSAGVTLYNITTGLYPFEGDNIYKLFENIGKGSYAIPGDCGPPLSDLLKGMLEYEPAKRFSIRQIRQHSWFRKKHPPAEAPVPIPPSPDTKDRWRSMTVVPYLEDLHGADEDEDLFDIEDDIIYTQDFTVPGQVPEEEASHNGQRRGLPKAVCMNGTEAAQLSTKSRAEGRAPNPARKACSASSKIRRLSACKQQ
T14 sequence (Q15759 whole entry, the tested form may be a part): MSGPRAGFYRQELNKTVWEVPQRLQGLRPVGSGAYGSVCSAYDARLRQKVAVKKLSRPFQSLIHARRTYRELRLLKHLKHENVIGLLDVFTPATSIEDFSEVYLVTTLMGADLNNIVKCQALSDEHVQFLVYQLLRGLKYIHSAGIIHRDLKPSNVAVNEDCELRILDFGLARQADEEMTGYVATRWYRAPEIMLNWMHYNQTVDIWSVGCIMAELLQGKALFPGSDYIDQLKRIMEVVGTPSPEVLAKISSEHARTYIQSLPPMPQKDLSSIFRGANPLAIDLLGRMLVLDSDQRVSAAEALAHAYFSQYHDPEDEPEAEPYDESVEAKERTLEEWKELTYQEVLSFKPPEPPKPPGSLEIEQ
T8 sequence (Q14680 whole entry, the tested form may be a part): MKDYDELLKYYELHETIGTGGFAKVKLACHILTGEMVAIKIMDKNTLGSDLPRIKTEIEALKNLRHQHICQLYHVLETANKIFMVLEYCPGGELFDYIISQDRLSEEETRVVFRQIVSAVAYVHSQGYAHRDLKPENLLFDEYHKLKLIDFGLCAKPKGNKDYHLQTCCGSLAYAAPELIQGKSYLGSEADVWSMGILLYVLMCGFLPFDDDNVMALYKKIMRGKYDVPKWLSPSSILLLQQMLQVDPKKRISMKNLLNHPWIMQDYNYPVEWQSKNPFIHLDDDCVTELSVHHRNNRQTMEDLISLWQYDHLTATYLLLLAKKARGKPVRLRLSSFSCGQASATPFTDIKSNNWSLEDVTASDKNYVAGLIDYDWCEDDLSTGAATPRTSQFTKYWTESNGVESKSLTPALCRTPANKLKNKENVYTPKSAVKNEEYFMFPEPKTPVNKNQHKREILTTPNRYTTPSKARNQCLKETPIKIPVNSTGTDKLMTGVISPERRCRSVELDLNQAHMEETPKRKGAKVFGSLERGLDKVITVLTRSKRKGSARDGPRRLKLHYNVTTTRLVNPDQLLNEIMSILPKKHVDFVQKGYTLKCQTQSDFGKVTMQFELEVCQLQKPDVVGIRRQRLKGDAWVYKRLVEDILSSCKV

remaining binding at 0.071 µM [1]: 94%
remaining binding at 0.071 µM [2]: 100%
remaining binding at 0.071 µM [3]: 42%
remaining binding at 0.071 µM [4]: 97%
remaining binding at 0.071 µM [5]: 88%
remaining binding at 0.071 µM [6]: 91%
remaining binding at 0.071 µM [7]: 89%
remaining binding at 0.071 µM [8]: 36%
remaining binding at 0.071 µM [9]: 52%
remaining binding at 0.071 µM [10]: 0.85%
remaining binding at 0.071 µM [11]: 0%
remaining binding at 0.071 µM [12]: 100%
remaining binding at 0.071 µM [13]: 90%
remaining binding at 0.071 µM [14]: 47%
remaining binding at 0.071 µM [15]: 80%
remaining binding at 0.071 µM [16]: 77%
remaining binding at 0.071 µM [17]: 74%
remaining binding at 0.071 µM [18]: 92%
remaining binding at 0.071 µM [19]: 85%
remaining binding at 0.071 µM [20]: 87%
remaining binding at 0.071 µM [21]: 3.5%
remaining binding at 0.071 µM [22]: 74%
remaining binding at 0.071 µM [23]: 75%
remaining binding at 0.071 µM [24]: 26%
remaining binding at 0.071 µM [25]: 100%
remaining binding at 0.071 µM [26]: 83%
remaining binding at 0.071 µM [27]: 51%
remaining binding at 0.071 µM [28]: 85%
remaining binding at 0.071 µM [29]: 80%
remaining binding at 0.071 µM [30]: 98%
remaining binding at 0.071 µM [31]: 0.75%
remaining binding at 0.071 µM [32]: 56%
remaining binding at 0.071 µM [33]: 0.35%
SMILES: COc1ccc(N2C(=O)N(c3c(C)cccc3C)Cc3cnc(Nc4ccc(C5CCN(C)CC5)c(OC)c4)nc32)c(OC)c1 [YKL-05-093]
